The values that follow are results of earlier work, collected in patent EP0404807B1, “DEPRENYL FOR SYSTEMIC TRANSDERMAL ADMINISTRATION” (SOMERSET PHARMACEUTICALS, INC., priority 1988, dated 1989).

For this data set the following is noted: deprenyl alone, as stated in EP 0241809 A.

For `C#CCN(C)C(C)Cc1ccccc1` (stereo not shown) [deprenyl, N-methyl-N-(1-phenyl-2-propyl)-2-propinylamine], the anti-Parkinsonism action result is listed as “almost no anti-Parkinsonism action”.
